Columns and labels:
Experiment in all cases: In vitro MIC, 2010 surveillance isolates
E. coli ESBL− = assay type: cell-based, Escherichia coli; details: for % R (resistance): Eucast breakpoints
E. coli ESBL+ = assay type: cell-based, Escherichia coli; details: for % R (resistance): Eucast breakpoints
K. pneumoniae ESBL− = assay type: cell-based, Klebsiella pneumoniae
K. pneumoniae ESBL+ = assay type: cell-based, Klebsiella pneumoniae; details: for % R (resistance): Eucast breakpoints
K. oxytoca = assay type: cell-based; details: for % R (resistance): Eucast breakpoints
E. cloacae CeftazS = assay type: cell-based; details: for % R (resistance): Eucast breakpoints
E. cloacae CeftazR = assay type: cell-based; details: for % R (resistance): Eucast breakpoints
Enterobacter spp = assay type: cell-based; details: for % R (resistance): Eucast breakpoints
A. baumanii = assay type: cell-based
Acinetobacter spp = assay type: cell-based
MSSA = assay type: cell-based
MRSA = assay type: cell-based
MS CoNS = assay type: cell-based, Coagulase-Negative Staphylococcus
MR CoNS = assay type: cell-based, Coagulase-Negative Staphylococcus
E. faecalis VS = assay type: cell-based
E. faecalis VNS = assay type: cell-based
E. faecium VS = assay type: cell-based; details: for % R (resistance): Eucast breakpoints
E. faecium VNS = assay type: cell-based; details: for % R (resistance): Eucast breakpoints

## amoxicillin-clavulanic acid [Amox/clav]
E. coli ESBL−; Asia/Pac
  % R (resistance): 14.2%
E. coli ESBL−; Asia/Pac, N=282
  MIC90: > 8 µg/mL
E. coli ESBL−; Europe
  % R (resistance): 17.7%
E. coli ESBL−; Europe, N=1533
  MIC90: > 8 µg/mL
E. coli ESBL−; L. Amer, N=389
  MIC90: > 8 µg/mL
E. coli ESBL−; N America, N=1172
  MIC90: > 8 µg/mL
E. coli ESBL+; Asia/Pac
  % R (resistance): 39.3%
E. coli ESBL+; Asia/Pac, N=219
  MIC90: > 8 µg/mL
E. coli ESBL+; Europe
  % R (resistance): 70.1%
E. coli ESBL+; Europe, N=274
  MIC90: > 8 µg/mL
E. coli ESBL+; L. Amer, N=168
  MIC90: > 8 µg/mL
E. coli ESBL+; N America, N=134
  MIC90: > 8 µg/mL
K. pneumoniae ESBL−; Asia/Pac, Eucast breakpoints
  % R (resistance): 3.7%
K. pneumoniae ESBL−; Asia/Pac, N=189
  MIC90: 8 µg/mL
K. pneumoniae ESBL−; Europe, Eucast breakpoints
  % R (resistance): 7.2%
K. pneumoniae ESBL−; Europe, N=361
  MIC90: 8 µg/mL
K. pneumoniae ESBL−; L. Amer, N=160
  MIC90: 8 µg/mL
K. pneumoniae ESBL−; N America, CLSI breakpoints
  % R (resistance): 0%
K. pneumoniae ESBL−; N America, N=671
  MIC90: 4 µg/mL
K. pneumoniae ESBL+; Asia/Pac
  % R (resistance): 72.6%
K. pneumoniae ESBL+; Asia/Pac, N=124
  MIC90: > 8 µg/mL
K. pneumoniae ESBL+; Europe
  % R (resistance): 84.1%
K. pneumoniae ESBL+; Europe, N=151
  MIC90: > 8 µg/mL
K. pneumoniae ESBL+; L. Amer, N=209
  MIC90: > 8 µg/mL
K. pneumoniae ESBL+; N America, N=108
  MIC90: > 8 µg/mL
K. oxytoca; Asia/Pac
  % R (resistance): 23.5%
K. oxytoca; Asia/Pac, N=17
  MIC90: > 8 µg/mL
K. oxytoca; Europe
  % R (resistance): 14.6%
K. oxytoca; Europe, N=158
  MIC90: > 8 µg/mL
K. oxytoca; L. Amer, N=25
  MIC90: > 8 µg/mL
K. oxytoca; N America, N=177
  MIC90: > 8 µg/mL
E. cloacae CeftazS; Asia/Pac
  % R (resistance): 94%
E. cloacae CeftazS; Asia/Pac, N=100
  MIC90: > 8 µg/mL
E. cloacae CeftazS; Europe
  % R (resistance): 92.3%
E. cloacae CeftazS; Europe, N=183
  MIC90: > 8 µg/mL
E. cloacae CeftazS; L. Amer, N=57
  MIC90: > 8 µg/mL
E. cloacae CeftazS; N America, N=210
  MIC90: > 8 µg/mL
E. cloacae CeftazR; Asia/Pac
  % R (resistance): 100%
E. cloacae CeftazR; Asia/Pac, N=63
  MIC90: > 8 µg/mL
E. cloacae CeftazR; Europe
  % R (resistance): 100%
E. cloacae CeftazR; Europe, N=72
  MIC90: > 8 µg/mL
E. cloacae CeftazR; L. Amer, N=42
  MIC90: > 8 µg/mL
E. cloacae CeftazR; N America, N=77
  MIC90: > 8 µg/mL
Enterobacter spp; Asia/Pac
  % R (resistance): 96.2%
Enterobacter spp; Asia/Pac, N=52
  MIC90: > 8 µg/mL
Enterobacter spp; Europe
  % R (resistance): 91.5%
Enterobacter spp; Europe, N=82
  MIC90: > 8 µg/mL
Enterobacter spp; L. Amer, N=42
  MIC90: > 8 µg/mL
Enterobacter spp; N America, N=101
  MIC90: > 8 µg/mL
A. baumanii; Asia/Pac, N=275
  MIC90: > 8 µg/mL
A. baumanii; Europe, N=145
  MIC90: > 8 µg/mL
A. baumanii; L. Amer, N=275
  MIC90: > 8 µg/mL
A. baumanii; N America, N=154
  MIC90: > 8 µg/mL
Acinetobacter spp; Europe, N=43
  MIC90: > 8 µg/mL
Acinetobacter spp; N America, N=42
  MIC90: > 8 µg/mL
MSSA; Asia/Pac, Eucast breakpoints
  % R (resistance): 0%
MSSA; Asia/Pac, N=641
  MIC90: ≤ 1 µg/mL
MSSA; Europe, Eucast breakpoints
  % R (resistance): 0%
MSSA; Europe, N=2109
  MIC90: ≤ 1 µg/mL
MSSA; L. Amer, CLSI breakpoints
  % R (resistance): 0%
MSSA; L. Amer, N=590
  MIC90: ≤
MSSA; N America, CLSI breakpoints
  % R (resistance): 0.1%
MSSA; N America, N=2373
  MIC90: ≤ 1 µg/mL
MRSA; Asia/Pac, Eucast breakpoints
  % R (resistance): 100%
MRSA; Asia/Pac, N=428
  MIC90: > 8 µg/mL
MRSA; Europe, Eucast breakpoints
  % R (resistance): 100%
MRSA; Europe, N=750
  MIC90: > 8 µg/mL
MRSA; L. Amer, CLSI breakpoints
  % R (resistance): 100%
MRSA; L. Amer, N=506
  MIC90: > 8 µg/mL
MRSA; N America, CLSI breakpoints
  % R (resistance): 100%
MRSA; N America, N=2508
  MIC90: > 8 µg/mL
MS CoNS; Asia/Pac, Eucast breakpoints
  % R (resistance): 0%
MS CoNS; Asia/Pac, N=18
  MIC90: ≤ 1 µg/mL
MS CoNS; Europe, Eucast breakpoints
  % R (resistance): 0%
MS CoNS; Europe, N=185
  MIC90: ≤ 1 µg/mL
MS CoNS; L. Amer, CLSI breakpoints
  % R (resistance): 0%
MS CoNS; L. Amer, N=67
  MIC90: ≤ 1 µg/mL
MS CoNS; N America, CLSI breakpoints
  % R (resistance): 0%
MS CoNS; N America, N=191
  MIC90: ≤ 1 µg/mL
MR CoNS; Asia/Pac, Eucast breakpoints
  % R (resistance): 100%
MR CoNS; Asia/Pac, N=77
  MIC90: > 8 µg/mL
MR CoNS; Europe, Eucast breakpoints
  % R (resistance): 100%
MR CoNS; Europe, N=510
  MIC90: > 8 µg/mL
MR CoNS; L. Amer, CLSI breakpoints
  % R (resistance): 100%
MR CoNS; L. Amer, N=301
  MIC90: > 8 µg/mL
MR CoNS; N America, CLSI breakpoints
  % R (resistance): 100%
MR CoNS; N America, N=461
  MIC90: 8 µg/mL
E. faecalis VS; Asia/Pac, Eucast breakpoints
  % R (resistance): 0%
E. faecalis VS; Asia/Pac, N=214
  MIC90: ≤ 1 µg/mL
E. faecalis VS; Europe, Eucast breakpoints
  % R (resistance): 0%
E. faecalis VS; Europe, N=669
  MIC90: ≤ 1 µg/mL
E. faecalis VS; L. Amer, CLSI breakpoints
  % R (resistance): 0%
E. faecalis VS; L. Amer, N=290
  MIC90: ≤ 1 µg/mL
E. faecalis VS; N America, CLSI breakpoints
  % R (resistance): 0%
E. faecalis VS; N America, N=863
  MIC90: ≤ 1 µg/mL
E. faecalis VNS; Asia/Pac, N=1
  range of MICs (N <10, shown instead of MIC90): ≤1
E. faecalis VNS; Europe, Eucast breakpoints
  % R (resistance): 0%
E. faecalis VNS; Europe, N=8
  range of MICs (N <10, shown instead of MIC90): ≤1-2
E. faecalis VNS; L. Amer, CLSI breakpoints
  % R (resistance): 0%
E. faecalis VNS; L. Amer, N=7
  range of MICs (N <10, shown instead of MIC90): ≤1-2
E. faecalis VNS; N America, CLSI breakpoints
  % R (resistance): 0%
E. faecalis VNS; N America, N=38
  MIC90: ≤ 1 µg/mL
E. faecium VS; Asia/Pac
  % R (resistance): 91.5%
E. faecium VS; Asia/Pac, N=106
  MIC90: > 8 µg/mL
E. faecium VS; Europe
  % R (resistance): 93.4%
E. faecium VS; Europe, N=303
  MIC90: > 8 µg/mL
E. faecium VS; L. Amer, N=51
  MIC90: > 8 µg/mL
E. faecium VS; N America, N=115
  MIC90: > 8 µg/mL
E. faecium VNS; Asia/Pac
  % R (resistance): 100%
E. faecium VNS; Asia/Pac, N=24
  MIC90: > 8 µg/mL
E. faecium VNS; Europe
  % R (resistance): 100%
E. faecium VNS; Europe, N=71
  MIC90: > 8 µg/mL
E. faecium VNS; L. Amer, N=41
  MIC90: > 8 µg/mL
E. faecium VNS; N America, N=478
  MIC90: > 8 µg/mL
